Measurements: US7700644B2, “Isoflavonoid dimers” (Novogen Research Pty Ltd, priority 2005, dated 2010)

Tests used:
RPMI-8226 (Leukemic) = test: In vitro cytotoxicity, MTT proliferation assay, RPMI-8226; assay type: cell-based; conditions: Homo sapiens; Leukemic RPMI-8226
Procedure: (§1) The human pancreatic cancer cell line, HPAC (CRL-2119) was routinely cultured in 1:1 mixture DMEM (Sigma) plus Ham's F12 (Sigma) medium containing HEPES (15 mM), insulin (0.002 mg/ml), transferrin (0.005 mg/ml), hydrocortisone, (40 ng/ml), epidermal growth factor (10 ng/ml). The ovarian cancer cell line CP70 was obtained as a gift from Dr. Gil Mor (Yale University) and cultured in a 1:1 mixture DMEM plus Ham's F12 medium, and SKOV-3 was purchased from ATCC and cultured in McCoy's 5a medium. The breast cancer cell line MDA-MB-468 cultured in Leibovitz's L-15 medium.
(§2) All cultures were supplemented with 10% FCS(CSL, Australia), penicillin (100 U/ml), streptomycin ([…]), L-glutamine (2 mM) and sodium bicarbonate (1.2 g/L), and cultured at 37° C. in a humidified atmosphere of 5% CO2. All remaining cell lines were purchased from ATCC (Maryland, USA) except where noted.
(§3) IC50 values were determined for each cell line. Cells were seeded in 96-well plates at an appropriate cell density as determined from growth kinetics analysis. […] Cell proliferation was assessed after the addition of 20 μl of 3-4,5 dimethylthiazol-2,5-diphenyl tetrazolium bromide (MTT, 2.5 mg/ml in PBS, Sigma) for 3-4 hrs at 37° C. according to manufacturer's instructions. IC50 values were calculated from semi-log plots of % of control proliferation on the y-axis against log dose on the x-axis.

SKOV-3 (Ovarian) = test: In vitro cytotoxicity, MTT proliferation assay, SKOV-3; assay type: cell-based, human; conditions: Homo sapiens, SK-OV-3; Ovarian SKOV-3
Procedure: as §1, §2
(§4) IC50 values were determined for each cell line. Cells were seeded in 96-well plates at an appropriate cell density as determined from growth kinetics analysis. NFFs were cultured for 5 days and RK-13s for 24 hrs in the absence and presence of the test compounds. Cell proliferation was assessed after the addition of 20 μl of 3-4,5 dimethylthiazol-2,5-diphenyl tetrazolium bromide (MTT, 2.5 mg/ml in PBS, Sigma) for 3-4 hrs at 37° C. according to manufacturer's instructions. IC50 values were calculated from semi-log plots of % of control proliferation on the y-axis against log dose on the x-axis.

HTB-138 (Glioma) = test: In vitro cytotoxicity, MTT proliferation assay, HTB-138; assay type: cell-based, human; conditions: Homo sapiens; Glioma HTB-138
Procedure: as §1, §2, §4

MM96L (Melanoma) = test: In vitro cytotoxicity, MTT proliferation assay, MM96L; assay type: cell-based, human; conditions: Homo sapiens
Procedure: as §1, §2, §4

[1] = Oral pharmacokinetics in mice; assay type: in vivo, female BALB/c mice; conditions: female, BALB/c, mouse, blood, 50 mg/kg, oral gavage, read-out: Free concentration in blood
Procedure: 4,9-Dihydroxy-14,15-dimethoxy-12a-(3′,4′-dimethoxyphenyl)-3,10-dimethyl-2,11-dioxa-(1H,12H)-6b,6c,12a,16b-tetrahydronaphtho[1,2-g]chrysene (2) from Example 6.1 was prepared as homogenous suspensions in 1% CMC (m:v, water). The Cpd. 2 formulation was delivered orally by gavage to female BALB/c mice at a dosage of 50 mg/kg. Three animals were allocated to each time point (15 min, 30 min, 1 hr, 4 hr and 24 hr). At each respective time point, animals were euthanased by cervical dislocation and blood collected. Free Cpd.

LNCaP (Prostate) = test: In vitro cytotoxicity, MTT proliferation assay, LNCaP; assay type: cell-based, human; conditions: Homo sapiens
Procedure: as §1, §2, §4

[2] = system: human pancreatic cancer cell line, HPAC (CRL-2119); test: In vitro cytotoxicity, MTT proliferation assay, CRL-2119; assay type: cell-based; conditions: Homo sapiens, HPAC; Pancreatic CRL-2119
Procedure: as §1, §2, §4

MCF-7 (Breast) = test: In vitro cytotoxicity, MTT proliferation assay, MCF-7; assay type: cell-based, human; conditions: Homo sapiens, MCF7; Breast MCF-7
Procedure: as §1, §2, §4

[3] = system: RK-13 (rabbit kidney) cells; test: Normal cell toxicity, MTT proliferation assay, rabbit kidney cells; assay type: cell-based; conditions: Oryctolagus cuniculus, 24 hrs
Procedure: (§5) Neonatal foreskin fibroblasts (NFF) were a gift from Dr. Peter Parsons (Queensland Institute of Medical Research). RK-13 (rabbit kidney) cells were obtained from Miller Whalley (Macquarie University). Both cell types were cultured in RPMI supplemented with 10% FCS (CSL, Australia), penicillin (100 U/ml), streptomycin ([…]), L-glutamine (2 mM) and sodium bicarbonate (1.2 g/L), and cultured at 37° C. in a humidified atmosphere of 5% CO2.
as §4

NCI-H460 (Lung) = test: In vitro cytotoxicity, MTT proliferation assay, NCI-H460; assay type: cell-based, human; conditions: Homo sapiens
Procedure: as §1, §2, §4

HCT-15 (Colorectal) = test: In vitro cytotoxicity, MTT proliferation assay, HCT-15; assay type: cell-based, human; conditions: Homo sapiens; Colorectal HCT-15
Procedure: as §1, §2, §4

DU145 (Prostate) = test: In vitro cytotoxicity, MTT proliferation assay, DU145; assay type: cell-based, human; conditions: Homo sapiens, DU-145
Procedure: as §1, §2, §4

MM200 (Melanoma) = test: In vitro cytotoxicity, MTT proliferation assay, MM200; assay type: cell-based, human; conditions: Homo sapiens
Procedure: as §1, §2, §4

[4] = system: Neonatal foreskin fibroblasts (NFF); test: Normal cell toxicity, MTT proliferation assay, NFF; assay type: cell-based, human; conditions: Homo sapiens, 120 h; NFF fibroblast, cultured 5 days, MTT
Procedure: as §5, §4
Duplicate cytotoxicity assays against NFF cells were conducted with dehydroequol (DHE), 4,9-dihydroxy-14,15-dimethoxy-12a-(3′,4′-dimethoxyphenyl)-3,10-dimethyl-2,11-dioxa-(1H,12H)-6b,6c,12a,16b-tetrahydronaphtho[1,2-g]chrysene (2) from Example 6.1 and cisplatin.

A2780 (Ovarian) = test: In vitro cytotoxicity, MTT proliferation assay, A2780; assay type: cell-based, human; conditions: Homo sapiens
Procedure: as §1, §2, §4

[5] = system: ovarian cancer cell line CP70; test: In vitro cytotoxicity, MTT proliferation assay, CP70; assay type: cell-based, human; conditions: Homo sapiens
Procedure: as §1, §2, §4

NCI-H23 (Lung) = test: In vitro cytotoxicity, MTT proliferation assay, NCI-H23; assay type: cell-based; conditions: Homo sapiens
Procedure: as §1, §2, §3

CCRF-CEM (Leukemic) = test: In vitro cytotoxicity, MTT proliferation assay, CCRF-CEM; assay type: cell-based; conditions: Homo sapiens
Procedure: as §1, §2, §3

[6] = system: breast cancer cell line MDA-MB-468; test: In vitro cytotoxicity, MTT proliferation assay, MDA-MB-468; assay type: cell-based, human; conditions: Homo sapiens; Breast MDA-MB-468
Procedure: as §1, §2, §4

HT-29 (Colorectal) = test: In vitro cytotoxicity, MTT proliferation assay, HT-29; assay type: cell-based, human; conditions: Homo sapiens; Colorectal HT-29
Procedure: as §1, §2, §4

PC3 (Prostate) = test: In vitro cytotoxicity, MTT proliferation assay, PC3; assay type: cell-based, human; conditions: Homo sapiens
Procedure: as §1, §2, §4

`Oc1ccc(C2=Cc3ccc(O)cc3OC2)cc1` [DHE, 3-(4-hydroxyphenyl)chrom-3-en-7-ol] showed an IC50 (RPMI-8226 (Leukemic)) of 3.72 ± 0.08 µM, an IC50 (SKOV-3 (Ovarian)) of 21.8 ± 4.65 µM and an IC50 (HTB-138 (Glioma)) of 7.35 ± 0.89 µM. It also gave an IC50 (MM96L (Melanoma)) of 4.7 µM, a concentration at 15 min ([1]; Time 0.25 (15 min)) of 3300 nM and a concentration at 30 min ([1]; Time 0.5 (30 min)) of 2900 nM. It also gave a concentration at 1 h ([1]; Time 1 (1 hr)) of 1500 nM, a concentration at 4 h ([1]; Time 4 (4 hr)) of 1300 nM and a concentration at 24 h ([1]; Time 24 (24 hr)) of 150 nM. It also gave an IC50 (LNCaP (Prostate)) of 4.8 ± 3.8 µM, an IC50 [2] of 56.6 ± 16.8 µM and an IC50 (MCF-7 (Breast)) of 21.5 ± 13.2 µM. The IC50 [3] was > 150 µM, the IC50 (NCI-H460 (Lung)) was 10.6 ± 3.8 µM and the IC50 (HCT-15 (Colorectal)) was 24.4 ± 12.6 µM. For the same molecule, the IC50 (DU145 (Prostate)) was 5.95 ± 1.5 µM, the IC50 (MM200 (Melanoma)) was 4.8 µM and the IC50 [4] was > 150 µM. The IC50 (A2780 (Ovarian)) was 1.7 ± 0.61 µM, the IC50 [5] was 1.69 ± 0.62 µM and the IC50 (NCI-H23 (Lung)) was 8.75 ± 7.2 µM. For the same molecule, the IC50 (CCRF-CEM (Leukemic)) was 1.7 ± 0.68 µM, the IC50 [6] was 7.9 ± 3.5 µM and the IC50 (HT-29 (Colorectal)) was 50.5 ± 21.9 µM. For the same molecule, the IC50 (PC3 (Prostate)) was 9.09 ± 8.12 µM.
